What all share (type): cell-based
One experiment has as its target αvβ1 (Homo sapiens, UniProt P05556+P06756). Briefly: Cell Adhesion Assay αvβ1. The note with it: 2 mM MgCl2, cell line and ligand for αvβ1 not given, read-out: mean affinity (pIC50) αvβ1 (converted).
For another experiment, the target named is T1, αvβ6 (Homo sapiens, UniProt P06756+P18564).
T1 construct: expressed in transfected cells; host or cells: K562
The experiment can be described thus: Cell Adhesion Assay K562-αvβ6 (LAP-b1). As to conditions: K562-αvβ6 cells, ligand LAP-b1, 2 mM MgCl2; read-out: mean affinity (pIC50) αvβ6 (converted). The method, then:
(§1) The following cell lines were used, with ligands in brackets: K562-α5β1 (Fibronectin), K562-αvβ3 (LAP-b1), K562-αvβ5 (Vitronectin), K562-αvβ6 (LAP-b1), K562-αvβ8 (LAP-b1). The divalent cation used to facilitate adhesion was 2 mM MgCl2. Adhesion was quantified by cell labelling with the fluorescent dye BCECF-AM (Life Technologies), where cell suspensions at 3×10^6 cells/mL were incubated with […] of 30 mM BCECF-AM at 37° C. for 10 minutes, before dispensing into the assay plate. At the assay conclusion cells that adhered were lysed using 50 μL/well of 0.5% Triton X-100 in H2O to release fluorescence. Fluorescence intensity was detected using an Envision® plate reader (Perkin Elmer). For active antagonists in the assay, data were fitted to a 4 parameter logistic equation for IC50 determinations.

The next experiment concerns the target T2, αvβ5 (Homo sapiens, UniProt P06756+P18084).
T2 construct: expressed in transfected cells; host or cells: K562
The experiment can be described thus: Cell Adhesion Assay K562-αvβ5 (Vitronectin). The note with it: K562-αvβ5 cells, ligand Vitronectin, 2 mM MgCl2; read-out: mean affinity (pIC50) αvβ5 (converted). The method, then: as §1

The next experiment deals with T3, αvβ3 (Homo sapiens, UniProt P05106+P06756).
T3 construct: expressed in transfected cells; host or cells: K562
The experiment can be described thus: Cell Adhesion Assay K562-αvβ3 (LAP-b1). The note with it: K562-αvβ3 cells, ligand LAP-b1, 2 mM MgCl2; read-out: mean affinity (pIC50) αvβ3 (converted). The method, then:
as §1

A further experiment deals with T4, αvβ8 (Homo sapiens, UniProt P06756+P26012).
T4 construct: expressed in transfected cells; host or cells: K562
The experiment can be described thus: Cell Adhesion Assay K562-αvβ8 (LAP-b1). The note with it: K562-αvβ8 cells, ligand LAP-b1, 2 mM MgCl2; read-out: mean affinity (pIC50) αvβ8 (converted). How it is done: as §1

SMILES strings stand for the structures.

This is an account of results in patent US10144733B2, “Naphthyridine derivatives as alpha v beta 6 integrin antagonists for the treatment of E.G. fibrotic diseases” (GlaxoSmithKline Intellectual Property Development Limited, priority 2014, dated 2018).

T4 sequence (P06756 31-889 limits assumed): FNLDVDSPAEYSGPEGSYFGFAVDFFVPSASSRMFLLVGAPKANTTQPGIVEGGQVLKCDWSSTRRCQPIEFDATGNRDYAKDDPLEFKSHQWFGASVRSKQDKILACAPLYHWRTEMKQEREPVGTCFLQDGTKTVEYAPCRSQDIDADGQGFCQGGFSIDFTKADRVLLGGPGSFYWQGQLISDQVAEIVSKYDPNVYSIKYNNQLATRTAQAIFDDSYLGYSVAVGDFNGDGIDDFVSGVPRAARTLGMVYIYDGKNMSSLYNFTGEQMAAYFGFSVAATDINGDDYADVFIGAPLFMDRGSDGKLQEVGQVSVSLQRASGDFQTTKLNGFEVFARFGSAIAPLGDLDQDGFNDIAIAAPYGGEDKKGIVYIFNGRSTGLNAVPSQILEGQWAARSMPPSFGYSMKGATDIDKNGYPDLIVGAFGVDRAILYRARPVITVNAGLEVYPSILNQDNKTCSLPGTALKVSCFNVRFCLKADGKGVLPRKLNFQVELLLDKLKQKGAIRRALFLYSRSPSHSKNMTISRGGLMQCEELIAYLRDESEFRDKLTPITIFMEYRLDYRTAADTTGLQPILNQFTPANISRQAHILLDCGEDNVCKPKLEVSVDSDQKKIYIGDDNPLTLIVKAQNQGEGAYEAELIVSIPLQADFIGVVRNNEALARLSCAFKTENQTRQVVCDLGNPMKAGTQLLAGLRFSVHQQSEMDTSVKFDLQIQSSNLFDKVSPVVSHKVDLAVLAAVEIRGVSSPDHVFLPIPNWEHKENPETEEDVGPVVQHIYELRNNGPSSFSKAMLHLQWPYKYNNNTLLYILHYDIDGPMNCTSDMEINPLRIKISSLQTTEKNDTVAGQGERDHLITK
T4 sequence (P06756 891-1048 partner limits assumed): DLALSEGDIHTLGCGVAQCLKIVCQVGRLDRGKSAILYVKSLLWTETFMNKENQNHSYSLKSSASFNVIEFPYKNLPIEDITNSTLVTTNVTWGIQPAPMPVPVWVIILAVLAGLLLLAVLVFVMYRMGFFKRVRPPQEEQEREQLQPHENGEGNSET
T4 sequence (P26012 43-769): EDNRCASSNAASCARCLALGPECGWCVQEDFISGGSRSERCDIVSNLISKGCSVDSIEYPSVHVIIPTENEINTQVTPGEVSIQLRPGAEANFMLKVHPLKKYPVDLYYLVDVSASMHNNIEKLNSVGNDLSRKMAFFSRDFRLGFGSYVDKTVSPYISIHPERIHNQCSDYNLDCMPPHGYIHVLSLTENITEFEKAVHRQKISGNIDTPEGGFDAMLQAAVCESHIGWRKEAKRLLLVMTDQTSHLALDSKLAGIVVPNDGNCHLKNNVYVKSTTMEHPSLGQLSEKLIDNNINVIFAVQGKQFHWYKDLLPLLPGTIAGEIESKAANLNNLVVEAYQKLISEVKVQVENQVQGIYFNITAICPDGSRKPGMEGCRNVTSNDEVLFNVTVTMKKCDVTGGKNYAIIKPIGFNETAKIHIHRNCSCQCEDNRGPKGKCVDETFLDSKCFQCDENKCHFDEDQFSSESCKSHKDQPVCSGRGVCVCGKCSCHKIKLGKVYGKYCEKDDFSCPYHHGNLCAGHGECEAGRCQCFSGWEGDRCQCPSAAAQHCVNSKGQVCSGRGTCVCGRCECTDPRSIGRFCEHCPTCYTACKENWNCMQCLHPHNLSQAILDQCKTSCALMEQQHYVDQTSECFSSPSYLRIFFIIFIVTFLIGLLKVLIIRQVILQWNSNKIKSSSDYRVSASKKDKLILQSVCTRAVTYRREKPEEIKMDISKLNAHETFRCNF
T1 sequence (P06756 31-889 limits assumed): as the sequence (P06756 31-889 limits assumed) above
T1 sequence (P06756 891-1048 partner limits assumed): as the sequence (P06756 891-1048 partner limits assumed) above
T1 sequence (P18564 22-788): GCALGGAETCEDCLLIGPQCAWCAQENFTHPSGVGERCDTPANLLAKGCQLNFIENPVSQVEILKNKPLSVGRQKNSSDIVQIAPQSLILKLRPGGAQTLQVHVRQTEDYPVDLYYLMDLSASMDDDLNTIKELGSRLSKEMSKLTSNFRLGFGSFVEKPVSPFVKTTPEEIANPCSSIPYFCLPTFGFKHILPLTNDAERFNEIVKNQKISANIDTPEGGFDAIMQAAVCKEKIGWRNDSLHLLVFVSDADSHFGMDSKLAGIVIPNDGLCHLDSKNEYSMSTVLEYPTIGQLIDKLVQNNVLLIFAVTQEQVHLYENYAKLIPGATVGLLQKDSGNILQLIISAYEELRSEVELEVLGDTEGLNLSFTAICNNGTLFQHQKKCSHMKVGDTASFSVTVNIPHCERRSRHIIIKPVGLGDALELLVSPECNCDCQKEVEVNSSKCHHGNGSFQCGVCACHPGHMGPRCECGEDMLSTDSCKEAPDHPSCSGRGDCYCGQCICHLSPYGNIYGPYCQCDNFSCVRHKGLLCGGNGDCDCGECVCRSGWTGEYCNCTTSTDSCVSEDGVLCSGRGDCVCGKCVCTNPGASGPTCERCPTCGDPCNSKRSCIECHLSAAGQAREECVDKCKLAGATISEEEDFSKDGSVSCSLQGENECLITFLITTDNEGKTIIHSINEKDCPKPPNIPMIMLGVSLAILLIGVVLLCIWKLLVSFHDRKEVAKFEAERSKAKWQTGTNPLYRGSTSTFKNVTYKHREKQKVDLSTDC
T2 sequence (P06756 31-889 limits assumed): as the sequence (P06756 31-889 limits assumed) above
T2 sequence (P06756 891-1048 partner limits assumed): as the sequence (P06756 891-1048 partner limits assumed) above
T2 sequence (P18084 24-799): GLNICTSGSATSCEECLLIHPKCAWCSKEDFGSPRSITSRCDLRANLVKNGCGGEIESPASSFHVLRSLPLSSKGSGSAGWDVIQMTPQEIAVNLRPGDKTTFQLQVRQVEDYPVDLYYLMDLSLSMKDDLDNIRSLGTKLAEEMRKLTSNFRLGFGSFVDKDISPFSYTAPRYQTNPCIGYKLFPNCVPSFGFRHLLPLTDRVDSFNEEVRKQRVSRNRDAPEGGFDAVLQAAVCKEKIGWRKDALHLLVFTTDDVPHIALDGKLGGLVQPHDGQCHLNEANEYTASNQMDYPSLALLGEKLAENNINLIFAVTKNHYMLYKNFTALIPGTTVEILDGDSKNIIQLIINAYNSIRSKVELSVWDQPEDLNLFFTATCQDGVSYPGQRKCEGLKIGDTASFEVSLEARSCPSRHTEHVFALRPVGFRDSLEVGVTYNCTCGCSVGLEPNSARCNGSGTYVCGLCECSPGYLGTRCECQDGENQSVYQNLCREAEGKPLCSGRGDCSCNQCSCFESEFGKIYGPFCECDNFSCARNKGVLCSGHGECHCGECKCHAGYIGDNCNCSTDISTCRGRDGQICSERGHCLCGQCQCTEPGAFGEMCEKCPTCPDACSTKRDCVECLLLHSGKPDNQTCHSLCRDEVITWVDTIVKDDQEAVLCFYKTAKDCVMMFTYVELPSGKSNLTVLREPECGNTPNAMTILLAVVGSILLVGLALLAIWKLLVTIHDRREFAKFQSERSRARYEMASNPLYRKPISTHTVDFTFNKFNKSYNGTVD
T3 sequence (P06756 31-889 limits assumed): as the sequence (P06756 31-889 limits assumed) above
T3 sequence (P06756 891-1048 partner limits assumed): as the sequence (P06756 891-1048 partner limits assumed) above
T3 sequence (P05106 27-788): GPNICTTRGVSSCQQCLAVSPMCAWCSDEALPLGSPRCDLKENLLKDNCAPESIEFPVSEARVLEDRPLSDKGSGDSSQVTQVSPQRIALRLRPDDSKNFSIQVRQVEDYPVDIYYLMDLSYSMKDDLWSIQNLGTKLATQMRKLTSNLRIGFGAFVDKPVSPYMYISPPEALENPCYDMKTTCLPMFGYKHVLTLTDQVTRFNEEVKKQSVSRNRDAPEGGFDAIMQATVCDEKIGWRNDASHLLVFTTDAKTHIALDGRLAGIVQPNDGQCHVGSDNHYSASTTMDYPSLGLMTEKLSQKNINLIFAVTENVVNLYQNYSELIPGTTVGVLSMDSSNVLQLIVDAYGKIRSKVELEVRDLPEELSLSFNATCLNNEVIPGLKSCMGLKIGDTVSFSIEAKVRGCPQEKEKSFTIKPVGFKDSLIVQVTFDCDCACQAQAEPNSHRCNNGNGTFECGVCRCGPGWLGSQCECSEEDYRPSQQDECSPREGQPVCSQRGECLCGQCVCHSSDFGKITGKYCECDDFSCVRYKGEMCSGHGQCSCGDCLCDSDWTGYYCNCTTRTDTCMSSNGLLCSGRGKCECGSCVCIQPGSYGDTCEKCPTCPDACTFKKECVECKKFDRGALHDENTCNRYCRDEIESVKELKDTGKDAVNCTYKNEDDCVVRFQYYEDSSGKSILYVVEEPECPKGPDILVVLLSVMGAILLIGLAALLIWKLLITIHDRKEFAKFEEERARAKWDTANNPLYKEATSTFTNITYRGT

On to `Cc1cc(CF)nn1-c1cccc(C(CC(=O)O)CN2CC[C@@H](CCc3ccc4c(n3)NCCC4)C2)c1` (stereo partly drawn) [Example 11, 3-(3-(3-(fluoromethyl)-5-methyl-1H-pyrazol-1-yl)phenyl)-4-((R)-3-(2-(5,6,7,8-tetrahydro-18-naphthyridin-2-yl)ethyl)pyrrolidin-1-yl)butanoic acid], for which the IC50 is 63.1 nM at αvβ1; 3.16 nM on αvβ6; 158 nM at αvβ5; 1260 nM at αvβ3; 15.8 nM at αvβ8.

`Cc1cc(CO)nn1-c1cccc(C(CC(=O)O)CN2CC[C@@H](CCc3ccc4c(n3)NCCC4)C2)c1` (single isomer, unassigned) [Example 10]: the IC50 at αvβ6 was 2.51 nM; on αvβ5 it was 158 nM; on αvβ3 it was 631 nM; at αvβ8, 10 nM.

On to `O=C(O)CC(CN1CC[C@@H](CCc2ccc3c(n2)NCCC3)C1)c1cccc(-n2ccc(C(F)(F)F)n2)c1` (stereo partly drawn) [Example 7, 4-((R)-3-(2-(5,6,7,8-tetrahydro-1,8-naphthyridin-2-yl)ethyl)pyrrolidin-1-yl)-3-(3-(3-(trifluoromethyl)-1H-pyrazol-1-yl)phenyl) butanoic acid], for which the IC50 at αvβ6 is 6.31 nM; on αvβ5, 50.1 nM; at αvβ3, 631 nM; at αvβ8, 25.1 nM.

As to `Cc1cc(C(C)(C)O)nn1-c1cccc(C(CC(=O)O)CN2CC[C@@H](CCc3ccc4c(n3)NCCC4)C2)c1` (single isomer, unassigned) [Example 6], the IC50 is 12.6 nM at αvβ6, 200 nM on αvβ5, 3980 nM at αvβ3 and 50.1 nM at αvβ8.
